The numbers were not newly measured in US11179353B1, “Composition and method for prevention and treatment of radiation dermatitis” (Rythera Therapeutics, Inc., priority 2020, dated 2021), which cites them from elsewhere.

The subject of one data set is radiation skin damage. Conditions: retrospective analysis.
In another data set the test system is irradiated breast tissue. Conditions: topical.

Take `NCCCNCCSP(=O)(O)O` [amifostine]: the dermato-cytoprotective effects result with radiation skin damage is recorded as “significant dermato-cytoprotective effects”.

`O=C1O[C@H]([C@@H](O)CO)C(O)=C1O` [Vitamin C]: the “improvement in the results of irradiated breast tissue” value with irradiated breast tissue was “without improvement”.
